In paper PMC4900597, “Evaluation of the Effects of Pasireotide LAR Administration on Lymphocele Prevention after Axillary Node Dissection for Breast Cancer: Results of a Randomized Non-Comparative Phase 2 Study” (PLoS ONE, 2016):
Starred links: 1 amine or outer side, 2 acyl side, 3 side chain; linkers in the order of their positions; H or OH if unused. Non-standard residues stand in square brackets, D forms with d. Residues, ends and D or L forms follow the SMILES beside them. Groups on a side chain read outwards from the residue. *: point of attachment. Ethylenediamine = C(CN[*:2])N[*:1]; Hyp = O=C(O)[C@@H]1C[C@@H](O)CN1; Phg = N[C@H](C(=O)O)c1ccccc1; CO = O=C([*:1])[*:2]; Bn = c1ccc(C*)cc1

What was measured:
[1] = test system: sst2; set-up: method as in 2 sources, ref [14] = [14]; PMID 11980628; doi:10.1530/eje.0.1460707; 14 Bruns C , Lewis I , Briner U , Meno-Tetang G , Weckbecker G . SOM230: a novel somatostatin peptidomimetic with broad somatotropin release inhibiting factor (SRIF) receptor binding and a unique anti ||| ref [14] (a number printed in a supplementary file, which may have a reference list of its own: not looked up in the article's list); conditions: ref [14]; cited from earlier work
Source text: The five somatostatin receptors (sst 1 to 5) are expressed in various organs under normal physiological conditions. Somatostatin analogs activate these receptors, which in turn reduce cell activity and inhibit hormone synthesis. Octreotide and lanreotide, which are currently used, have strong affinities for the sst2 receptor and moderate affinities, if any, for the other receptor types. […] Like natural somatostatin and known analogs, its pharmaceutical efficacy depends on its binding to somatostatin receptors. There are five of these (sst 1 to 5); they are expressed in various bodily tissues under normal physiological conditions. Somatostatin analogs activate these receptors, which in turn reduce cell activity and inhibits hormone synthesis. (7). Octreotide and lanreotide, which are currently used, have a strong affinity for the sst2 receptor and moderate affinity, if any, for the other types.

[2] = test system: sst4; set-up: method as in PMID 11980628; conditions: ref [14]; cited from earlier work
Source text: Pasireotide is an injectable somatostatin analog. […] The five somatostatin receptors (sst 1 to 5) are expressed in various organs under normal physiological conditions. Somatostatin analogs activate these receptors, which in turn reduce cell activity and inhibit hormone synthesis. Octreotide and lanreotide, which are currently used, have strong affinities for the sst2 receptor and moderate affinities, if any, for the other receptor types.

[3] = test system: patients after axillary node dissection in breast cancer; set-up: method as in PMID 17214811; conditions: p = 0.0001, ref [11], cited from earlier work
[4] = test system: renal transplantation patients; set-up: method as in PMID 16757259; conditions: patients treated with octreotide; ref [22]; cited from earlier work
[5] = test system: patients after axillary node dissection in breast cancer; set-up: method as in PMID 12648685; conditions: p = 0.0001, ref [10], cited from earlier work
[6] = test system: women with breast cancer undergoing ALND; conditions: compared to placebo, p = 0.035; ref [12]; cited from earlier work
Experimental: More recently, Gauthier et al. have reported the results of a phase 3, double-blind, randomized study using Lanreotide Autogel 90 mg LAR to reduce lymphorrhea volumes in the axillary drain during the first 4 postoperative days.

[7] = test system: sst5; set-up: method as in PMID 11980628; conditions: ref [14]; cited from earlier work
Source text: (§1) The five somatostatin receptors (sst 1 to 5) are expressed in various organs under normal physiological conditions. Somatostatin analogs activate these receptors, which in turn reduce cell activity and inhibit hormone synthesis. Octreotide and lanreotide, which are currently used, have strong affinities for the sst2 receptor and moderate affinities, if any, for the other receptor types.

[8] = test system: sst3; set-up: method as in PMID 11980628; conditions: ref [14]; cited from earlier work
Source text: as §1

[9] = test system: sst1; conditions: ref [14]; cited from earlier work
Source text: as §1

[10] = cited from earlier work
Experimental: Differences between the results reported by Carcoforo [10] and Mahmoud and our results could be partially explained. First, the clinical practices were different. In our practice, drains were removed before the seventh post-operative day, whereas in the studies by Carcoforo [10] and Mahmoud^11 the mean duration of drainage was between 7 and 25 days. Second, the other authors both used octreotide 0.1 mg three times a day subcutaneously for 5 [10] or 7 [11] days, starting on the first postoperative day. In our study, we chose a long-acting release formulation of pasireotide (pasir ... || The gradual release form must be injected intramuscularly prior to surgery. An effective plateau concentration is obtained after 10 days regardless of the selected dosage (20, 40, or 60 mg) (3).

[11] = test system: female patients undergoing mastectomy with axillary lymph node dissection for breast cancer; experiment: Phase 2 trial, secondary endpoints: post-operative course (drainage, aspirations, healing, hospital stay); format: in vivo, human
[12] = test system: female patients undergoing mastectomy with axillary lymph node dissection for breast cancer; experiment: Phase 2 trial, safety / adverse events; format: in vivo, human; conditions: treatment group; patient with insulin-dependent diabetes hospitalised for hyperglycaemia
Experimental: The screening was performed during the pre-surgical visit. At the baseline visit (V1) 7 to 10 days prior to surgery, patients signed the informed consent, and pasireotide or the placebo were injected. In addition, a blood sample for pharmacokinetic monitoring was taken. On the day of surgery or the day after surgery (V2), data concerning the operation (type of surgery, duration, intraoperative complications, type and number of drains) and recording of adverse events were performed. On the day of discharge (V3), the summary of the daily collection of postoperative data was completed (daily and total drainage volumes, dates on which drains were removed and overall duration of drainage, postoperative complications, whether aspiration of a symptomatic lymphocele was required, length of hospital stay and recording of adverse events).
A second blood sample for pharmacokinetic monitoring was taken during this visit.
Follow-up visits at 2 months (V6) allowed the recording of late adverse events.

[13] = test system: female patients undergoing mastectomy with axillary lymph node dissection for breast cancer; experiment: Phase 2 randomised trial, primary outcome: absence of post-operative axillary symptomatic lymphocele; conditions: versus placebo group
Experimental: All female patients for whom mastectomy and ALND were indicated were eligible for the study, including patients who had received neo-adjuvant chemotherapy. Main exclusion criteria were related to diabetes, cardiac insufficiency, disorder of cardiac conduction or hepatic failure. […] This choice of these variables was decided because they could influence the rate of post-operative lymphocele and so created bias. Randomization was carried out by the Statistics Team at Hôpital Saint Louis in charge of the project (only one randomization list for both centers). […]
The postoperative visit was 28 ± 4 days following surgery (V5), and a routine lymphocele aspiration was warranted and considered positive if the aspirated volume exceeded 120 cc. Again, data on the number of repeated lymphocele aspirations and the volume were collected, and adverse events were recorded.
The primary motivation for this sequential Bayesian strategy were: (1) the uncertainty about the effect of the procedure, (2) the small sample and (3) it allows continuous monitoring of outcomes throughout the trial. […] Additionally, based on the subsequent distribution experimental group, early stopping criteria were calculated to allow early termination of the trial for inefficacy if there was substantial evidence that the estimated response rate was unacceptably low compared to the expected minimal response rate of 60%. […]

[14] = pasireotide LAR 40 and 60 mg, ref [21]

Octreotide
Affinity for the sst2 receptor, in words [1]: strong
Affinity for sst4 [2]: none
Need for postoperative aspiration of lymphoceles ([3]; control 90%): 40%
Mean daily drainage volume ([3]; control 145 ml): 104 mL
Total duration of drainage ([3]; control 25 days): 12.7 days
Duration of lymphatic leakage following transplantation [4]: shorter duration
Incidence of lymphocele formation after drain removal [4]: lower incidence
Daily drainage volume ([5]; subcutaneous octreotide in immediate postoperative period, untreated group 94.6 ml): 65.4 mL
Time of drain removal after surgery ([5]; untreated group 16.7 days): 7.1 days

lanreotide
Lymphorrhea volume, patients who only underwent an axillary dissection [6]: significantly reduced
Affinity for the sst2 receptor, in words [1]: strong

NCCCC[C@@H]1NC(=O)[C@@H](Cc2c[nH]c3ccccc23)NC(=O)[C@H](c2ccccc2)NC(=O)[C@@H]2C[C@@H](OC(=O)NCCN)CN2C(=O)[C@H](Cc2ccccc2)NC(=O)[C@H](Cc2ccc(OCc3ccccc3)cc2)NC1=O [Pasireotide] (cyclo([Hyp]([CO-Ethylenediamine])[Phg][dW]KY(Bn)F))
Affinity for sst5 relative to octreotide [7]: 40 times greater
Affinity for sst3 relative to octreotide [8]: 5 times greater
Affinity for sst1 relative to octreotide [9]: 30 times greater
Time to effective plateau concentration ([10]; gradual release form i.m., regardless of dosage (20, 40, or 60 mg), ref (3) Schmid et al AACE 2005): 10 days
Time of first concentration peak after administration [10, 14]: 1 days
Time of second slow-release peak with maximum concentrations [10, 14]: ~20 days
Day from which the effect was obtained after injection ([10]; pasireotide LAR, ref [21]): seventh
Duration for which the effect remained ([10]; pasireotide LAR, ref [21]): up to 30 days
Residual concentration at day 28 ([10]; patients with neuroendocrine tumors, ref [23]): 16.5 ng/mL
Daily flow axillary drain ([11]; Fig 3, Day 1): 50 mL
Daily flow mastectomy drain ([11]; Fig 3, Day 1): 52,5 ml
Daily flow axillary drain ([11]; Fig 3, Day 2): 50 mL
Daily flow mastectomy drain ([11]; Fig 3, Day 2): 40 mL
Daily flow axillary drain ([11]; Fig 3, Day 3): 65 mL
Daily flow mastectomy drain ([11]; Fig 3, Day 3): 38 mL
Daily flow axillary drain ([11]; Fig 3, Day 4): 50 mL
Daily flow mastectomy drain ([11]; Fig 3, Day 4): 40 mL
Daily flow axillary drain ([11]; Fig 3, Day 5): 75 mL
Daily flow mastectomy drain ([11]; Fig 3, Day 5): 41 mL
Daily flow axillary drain ([11]; Fig 3, Day 6): 50 mL
Daily flow mastectomy drain ([11]; Fig 3, Day 6): 40 mL
Daily flow axillary drain ([11]; Fig 3, Day 7): 35 mL
Daily flow mastectomy drain ([11]; Fig 3, Day 7): 30 mL
Length of time to onset of adjuvant chemotherapy ([11]; median [IQR]): 54 [37.5,60] days
Repeated lymphocele aspirations, total volume ([11]; median [IQR]): 270 [135,415] ml
Duration of drainage, axillary drain ([11]; median [IQR], n = 42): 3 [2,5] days
Duration of drainage, mastectomy drain ([11]; median [IQR], n = 42): 2.5 [1.75,4] days
Length of the hospital stay ([11]; median [IQR], n = 42): 5 [4,6] days
Total flow, axillary drain ([11]; median [IQR], n = 42): 165 [81,400.2] ml
Total flow, mastectomy drain ([11]; median [IQR], n = 42): 132.5 [55.5,226] ml
Patients who underwent systematic lymphocele aspiration on day 28 ([11]; treatment group): Twelve
Serious adverse events [12]: one
Affinity for sst4 [2]: none
Decrease in symptomatic lymphocele development in treated patients [13]: 12.2%
